# Results from patent US11478011B2, “Nutritional compositions and infant formula for promoting de novo myealination” (NESTEC S.A., priority 2015, dated 2022).
# Tests used:
# [1] = tested on: brain myelination (myelin water fraction) of children up to 5 years of age; test: Correlation analysis between infant formula nutrient composition and brain myelination (mcDESPOT MRI myelin water fraction); assay type: in vivo, human; conditions: formula-fed children up to 5 years; brain regions listed in the block; FIG. 1b-1p
# Procedure: MRI (Magnetic Resonance Imaging): MRI brain scans of infants and children between 0 and 5 years were acquired using a white matter imaging technique. This technique provides a quantitative measure, the Myelin Water Fraction (MWF), which is a surrogate marker of myelin content in the brain. When mapped as a function of time across early childhood, myelination trajectories can be generated.
# Infant formula composition: six infant formulas fed to infants participating in a study were analyzed for their composition/level of myelin-relevant nutrients.
# Infants included in this study were drawn from a larger longitudinal study of normal brain and behavioral development: the Brown University Assessment of Myelination and Behavior Across Maturation (BAMBAM). To focus on neurotypical development, children with known potential risk factors for learning, neurologic, or psychiatric disorders were specifically excluded during recruitment and enrollment. Thus, children with in utero alcohol or illicit substance exposure, premature (<37 weeks gestation) or multiple birth, fetal ultrasound abnormalities, complicated pregnancy (e.g., preeclampsia), APGAR scores <8, NICU admission, neurological disorder (e.g., head injury, epilepsy), psychiatric or developmental disorders in the infant, parents or siblings (including maternal depression requiring medication) were excluded. Ongoing screenings, such as the MCAT for autism, or CBCL for behavioral problems, were further used to remove enrolled children with clinically concerning behaviors or overt medical conditions (such as autism spectrum disorders).
# A combination of retrospective and prospective data were acquired from parents via detailed medical histories and parental interview on the type of infant formula used, percentage of breastfeeding to formula feeding, and length of exclusive breastfeeding. This information was updated at each study visit, which occurred approximately every 6 months for children under 2 years, and yearly for older children. Using this information, children were categorized into one of 2 groups: #1. Exclusively formula-fed; and #2. Exclusively breastfed for at least 90 days (3 months). Children who were fed a combination of breastmilk and formula within 3 months were excluded from our analysis. Infants within the exclusively formula-fed group were further sub-divided based on parental reports of the main infant formula used throughout the first 3 months. Main formula was defined as that given 90% of the time or more (in the case were parents used an alternate brand during vacation, for example).
# Using these criteria, 94 exclusively formula-fed infants and young children were selected into group #1. These included 13 children who received formula #2; 28 who received formula #5; 8 who received formula #3; 39 who received formula #4; 5 who received formula #1 and 1 who received formula #6. A sample of 52 exclusively breast-fed infants were also selected and matched to the over formula-fed group with regards to mean age, gestation duration, birth weight, male:female ratio, ethnicity ratio, maternal education, family size, and number of languages spoken in the home (in addition to English).
# Each infant was scanned using the mcDESPOT (multicomponent Driven Equilibrium Single Pulse Observation of T1 and T2) white matter imaging technique Deoni et al. (Magn. Reson. Med. 2008, 60:1372-1387), which provides a quantitative measure of the myelin water fraction (MWF)—a measure of myelin content—at each point throughout the brain. All infants were scanned during natural (i.e. non-sedated) sleep using acoustically-muffled mcDESPOT imaging protocols. Total imaging times ranged from 19 minutes for the youngest toddlers to 24 minutes for the older 4 year-old children.
# [2] = tested on: Neural Progenitor Cell (NPCs) from E14 mouse neocortex; test: Neurosphere counts in 96-well plates; assay type: cell-based; conditions: Low dose (Dose 1: 10 nM); grown for 2 days; control 103
# Procedure: (§1) Media Compositions and Culture Methods 1) Neurobasal Complete Media Neurobasal media (LIFE TECHNOLOGIES CORP, #21103-049) 50× B27 supplement (LIFE TECHNOLOGIES CORP, #12587-010) 2 mM L-Glutamine (LIFE TECHNOLOGIES CORP, #25030-149) 1× Pen-Strep (LIFE TECHNOLOGIES CORP, #15140-122) 2) Neurobasal Media Complete with Growth Factors (GF) Above recipe with GF mix 1M Tris (MW 121.14, Fisher SCI BP152) Heparin (sigma H3149) BSA (Sigma A7030) DNAse, RNase, Protease free water (Fisher SCI AC327390010) EGF (GIBCO PHG0311) bFGF vial (GIBCO PHG0021) 3) Neurobasal Media No Choline (Life Technologies, Formulated Custom, No L-Glutamine, no phenol red) Note: complete and complete with GF made the same as above. Generation of Neural Progenitor Cell (NPCs) Libraries: dissociation of E14 mouse neocortex Reagents Needed: DPBS (1×)+10% Pen/Strep Neurobasal media/10% Pen/Strep/10× Hepes Procedure:
# E14 pup brains were harvested and placed in ice cold DPBS (1×)+10% Pen/Strep, then they were dissected using a dissecting microscope. From each pup, one brain hemisphere was placed in 2 ml of Neurobasal media/10% P/S/10× Hepes and another brain hemisphere was placed in another tube.
# The tissue from each tube was aseptically and manually dissociate into single cells, neurobasal complete medium was added and centrifuged at 130 G for 5 min. […]
# [3] = tested on: Neural Progenitor Cell (NPCs) from E14 mouse neocortex; test: Monolayer culture NPC proliferation assay; assay type: cell-based; conditions: low dose (Dose 1: 10 nM); 3 days; control 262
# Procedure: as §1
# E14 pup brains were harvested and placed in ice cold DPBS (1×)+10% Pen/Strep, then they were dissected using a dissecting microscope. From each pup, one brain hemisphere was placed in 2 ml of Neurobasal media/10% P/S/10× Hepes and another brain hemisphere was placed in another tube. […]
# EDU incorporation was measured using Click-iT® EdU Alexa Fluor® 555 Imaging Kit (Life technologies, #c10338). […]
Compound,association of nutrient with myelination (myelin water fraction) over time in the brain [1],"number of neurospheres, Average (Mean) [2]","neuronal proliferation, DAPI [3]"
"CCCCC/C=C\C/C=C\C/C=C\C/C=C\CCCC(=O)O [AA, arachidonic acid]",association with myelination (myelin water fraction) was observed over time in the brain,,
[Ca+2] [calcium],association with myelination (myelin water fraction) was observed over time in the brain,,
[Mg+2] [magnesium],association with myelination (myelin water fraction) was observed over time in the brain,,
[P] [phosphorus],association with myelination (myelin water fraction) was observed over time in the brain,,
[Zn] [zinc],association with myelination (myelin water fraction) was observed over time in the brain,,
Sphingomyelin,association with myelination (myelin water fraction) was observed over time in the brain,94,280
iron,association with myelination (myelin water fraction) was observed over time in the brain,,
phosphatidylcholine,association with myelination (myelin water fraction) was observed over time in the brain,,
phosphatidylinositol,association with myelination (myelin water fraction) was observed over time in the brain,,
vitamin B12,association with myelination (myelin water fraction) was observed over time in the brain,,
